Data taken from ChEMBL document CHEMBL1156829 (Proc Natl Acad Sci U S A, 2008).
Where “and” joins values, the source holds several entries; their conditions need not be identical. Equal entries are not always repeated. Structures can show the parent of a compound that is named as a salt.

Tests used:
Plasmodium falciparum [1] = experiment: NOVARTIS: Inhibition of Plasmodium falciparum W2 (drug-resistant) proliferation in erythrocyte-based infection assay; format: functional, organism-based; conditions: read-out: EC50
Huh-7 = experiment: (§1) NOVARTIS: Cytotoxicity against human hepatocellular carcinoma cell line (Huh7); format: toxicity, cell-based; conditions: huh-7, read-out: CC50
Plasmodium falciparum [2] = experiment: NOVARTIS: Inhibition of Plasmodium falciparum 3D7 (drug-susceptible) proliferation in erythrocyte-based infection assay; format: functional, organism-based
[3] = as §1; format: toxicity, cell-based, Huh-7; conditions: Huh7 cells (hepatocellular carcinoma cell line)

CC[n+]1c(/C=C2\Sc3ccccc3N2CCO)ccc2cc(C)ccc21
EC50 (Plasmodium falciparum [1]; Plasmodium falciparum, W2): > 248 nM
EC50 (Plasmodium falciparum [1]): 142 nM
CC50 (Huh-7): > 10000 nM and 56300 nM

CC[n+]1c(/C=C2\Sc3ccc(C)cc3N2CCO)ccc2ccccc21
CC50 (Huh-7): > 10000 nM and 29400 nM

Cc1ccc(N=C2S/C(=C\c3c(Cl)cccc3Cl)C(=O)N2c2ccc(C)c(C)c2)cc1C
EC50 (Plasmodium falciparum [1]): 1340 nM and 4810 nM
CC50 (Huh-7): > 100000 nM

Cc1cc(C)cc(-n2c(C)cc(/C=C3\SC(=Nc4ccc(Cl)cc4)NC3=O)c2C)c1
EC50 (Plasmodium falciparum [1]): 81.1 nM and 704 nM
CC50 (Huh-7): > 100000 nM

Cc1cc(/C=C2\SC(=Nc3ccccc3)NC2=O)c(C)n1-c1ccccc1
EC50 (Plasmodium falciparum [1]): 12.8 nM and 86.2 nM
CC50 (Huh-7): > 99700 nM

C/C(C=C1Sc2ccc3ccoc3c2N1CCO)=C\c1sc2ccc3occc3c2[n+]1CCO
EC50 (Plasmodium falciparum [2]): 6890 nM and 1540 nM
CC50 (Huh-7): > 100000 nM

CC[n+]1c(/C=C2\Sc3ccc(OC)cc3N2C)ccc2cc(C)ccc21
EC50 (Plasmodium falciparum [1]): 331 nM and 52 nM
CC50 (Huh-7): > 10000 nM and 21800 nM

CS[C@H]1SC[C@H]2C(=O)N(C)[C@@H](C(C)C)C(=O)OC[C@@H](NC(=O)c3cnc4ccccc4n3)C(=O)N[C@@H](C)C(=O)N(C)[C@@H]1C(=O)N(C)[C@@H](C(C)C)C(=O)OC[C@@H](NC(=O)c1cnc3ccccc3n1)C(=O)N[C@@H](C)C(=O)N2C [ECHINOMYCIN]
EC50 (Plasmodium falciparum [2]; Plasmodium falciparum, 3D7): 73.7 nM
EC50 (Plasmodium falciparum [1]; Plasmodium falciparum, W2): 524 nM
CC50 [3]: > 10000 nM

CCC(Cc1cnc2nc(N)nc(N)c2n1)c1ccc(C(=O)N[C@@H](CCC(=O)O)C(=O)O)cc1 (some centres not stated) [EDATREXATE]
EC50 (Plasmodium falciparum [2]; Plasmodium falciparum, 3D7): 14.8 nM
EC50 (Plasmodium falciparum [1]; Plasmodium falciparum, W2): 108 nM
CC50 [3]: 30.4 nM

CC[C@H]1CN2CCc3cc(OC)c(OC)cc3[C@@H]2C[C@@H]1C[C@H]1NCCc2cc(OC)c(OC)cc21 [EMETINE]
EC50 (Plasmodium falciparum [2]; Plasmodium falciparum, 3D7): 10.1 nM
EC50 (Plasmodium falciparum [1]; Plasmodium falciparum, W2): 22.9 nM
CC50 [3]: 116 nM

O=C1c2ccccc2-[n+]2ccc3c([nH]c4ccccc43)c21 [FASCAPLYSIN CHLORIDE]
EC50 (Plasmodium falciparum [2]; Plasmodium falciparum, 3D7): 74.9 nM
EC50 (Plasmodium falciparum [1]; Plasmodium falciparum, W2): 46.4 nM
CC50 [3]: 589 nM

CN(C)c1ccc(C(=C2C=CC(=[N+](C)C)C=C2)c2ccc(N(C)C)cc2)cc1 [GENTIAN VIOLET]
EC50 (Plasmodium falciparum [2]; Plasmodium falciparum, 3D7): 22.1 nM
EC50 (Plasmodium falciparum [1]; Plasmodium falciparum, W2): 170 nM
CC50 [3]: 1430 nM

CCn1ccnc1CC1COc2ccccc2O1 (configuration not stated) [IMILOXAN HYDROCHLORIDE]
EC50 (Plasmodium falciparum [2]; Plasmodium falciparum, 3D7): > 1040 nM
EC50 (Plasmodium falciparum [1]; Plasmodium falciparum, W2): 443 nM
CC50 [3]: > 10000 nM

COc1cc2c(cc1O)CC[n+]1cc3c(OC)c(OC)ccc3cc1-2 [JATRORRHIZINE CHLORIDE]
EC50 (Plasmodium falciparum [2]; Plasmodium falciparum, 3D7): 939 nM
EC50 (Plasmodium falciparum [1]; Plasmodium falciparum, W2): 1660 nM
CC50 [3]: 8940 nM

CCCCN(CCCC)CC(O)c1cc(Cl)cc2c1-c1ccc(Cl)cc1/C2=C/c1ccc(Cl)cc1 (configuration not stated) [LUMEFANTRINE]
EC50 (Plasmodium falciparum [2]; Plasmodium falciparum, 3D7): 777 nM
EC50 (Plasmodium falciparum [1]; Plasmodium falciparum, W2): 518 nM
CC50 [3]: > 10000 nM

O[C@H]1[C@H]2c3cc4c(cc3CN3CCC(=C[C@@H]1O)[C@H]23)OCO4 [LYCORINE]
EC50 (Plasmodium falciparum [2]; Plasmodium falciparum, 3D7): 607 nM
EC50 (Plasmodium falciparum [1]; Plasmodium falciparum, W2): 156 nM
CC50 [3]: 66100 nM

OC(c1cc(C(F)(F)F)nc2c(C(F)(F)F)cccc12)C1CCCCN1 (configuration not stated) [MEFLOQUINE]
EC50 (Plasmodium falciparum [2]; Plasmodium falciparum, 3D7): 24.8 nM
EC50 (Plasmodium falciparum [1]; Plasmodium falciparum, W2): 8.14 nM
CC50 [3]: 18800 nM

O=C(NCCN1CCOCC1)c1ccc(Cl)cc1 [MOCLOBEMIDE]
EC50 (Plasmodium falciparum [2]; Plasmodium falciparum, 3D7): > 740 nM
EC50 (Plasmodium falciparum [1]; Plasmodium falciparum, W2): > 1250 nM
CC50 [3]: > 10000 nM

Cc1ccc2ccc3ccc(C)nc3c2n1 [NEOCUPROINE]
EC50 (Plasmodium falciparum [2]; Plasmodium falciparum, 3D7): 97.1 nM
EC50 (Plasmodium falciparum [1]; Plasmodium falciparum, W2): 24.3 nM
CC50 [3]: > 100000 nM

CCCCCCCCCCCC(OC(=O)C(CCCCN(O)C(C)=O)NC(=O)c1coc(-c2ccccc2O)n1)C(C)C(=O)NC1CCCCN(O)C1=O (configuration not stated) [NOCARDIMICIN B]
EC50 (Plasmodium falciparum [2]; Plasmodium falciparum, 3D7): > 864 nM
EC50 (Plasmodium falciparum [1]; Plasmodium falciparum, W2): 2.24 nM
CC50 [3]: > 10000 nM

C[C@@H]1C[C@H]2CC[C@H](O2)[C@H](C)C(=O)O[C@@H](C)C[C@@H]2CC[C@@H](O2)[C@@H](C)C(=O)O[C@H](C)C[C@H]2CC[C@@H](O2)[C@H](C)C(=O)O[C@@H](C)C[C@@H]2CC[C@@H](O2)[C@@H](C)C(=O)O1 [NONACTIN]
EC50 (Plasmodium falciparum [2]; Plasmodium falciparum, 3D7): 433 nM
EC50 (Plasmodium falciparum [1]; Plasmodium falciparum, W2): 359 nM
CC50 [3]: 3530 nM

NC(=O)CN1CC(O)CC1=O (configuration not stated) [OXIRACETAM]
EC50 (Plasmodium falciparum [2]; Plasmodium falciparum, 3D7): 5960 nM
EC50 (Plasmodium falciparum [1]; Plasmodium falciparum, W2): 6220 nM
CC50 [3]: 57500 nM

COc1cc2c(cc1OC)-c1cc3ccc(OC)c(OC)c3c[n+]1CC2 [PALMATINE CHLORIDE]
EC50 (Plasmodium falciparum [2]; Plasmodium falciparum, 3D7): 697 nM
EC50 (Plasmodium falciparum [1]; Plasmodium falciparum, W2): 766 nM
CC50 [3]: > 100000 nM

C/C(=C\c1csc(C)n1)[C@@H]1C[C@@H]2O[C@]2(C)CCC[C@H](C)[C@H](O)[C@@H](C)C(=O)C(C)(C)[C@@H](O)CC(=O)O1 [PATUPILONE]
EC50 (Plasmodium falciparum [2]; Plasmodium falciparum, 3D7): 4.09 nM
EC50 (Plasmodium falciparum [1]; Plasmodium falciparum, W2): > 1250 nM
CC50 [3]: > 6250 nM

N=C(N)c1ccc(OCCCCCOc2ccc(C(=N)N)cc2)cc1 [PENTAMIDINE]
EC50 (Plasmodium falciparum [2]; Plasmodium falciparum, 3D7): 66.2 nM
EC50 (Plasmodium falciparum [1]; Plasmodium falciparum, W2): 68.7 nM
CC50 [3]: > 6250 nM

O=C1C(=O)c2ncccc2-c2cccnc21 [PHANQUONE]
EC50 (Plasmodium falciparum [2]; Plasmodium falciparum, 3D7): 644 nM
EC50 (Plasmodium falciparum [1]; Plasmodium falciparum, W2): 369 nM
CC50 [3]: 5910 nM

O=C(Nc1ccc(Cl)cc1)Oc1ccccc1 [PHENYL 4-CHLOROPHENYLCARBAMATE]
EC50 (Plasmodium falciparum [2]; Plasmodium falciparum, 3D7): > 12500 nM
EC50 (Plasmodium falciparum [1]; Plasmodium falciparum, W2): 2010 nM
CC50 [3]: 51900 nM

COC(=O)[C@]1(C)CC[C@]2(C)CC[C@]3(C)C4=CC=C5C(=CC(=O)C(O)=C5C)[C@]4(C)CC[C@@]3(C)[C@@H]2C1 [PRISTIMERIN]
EC50 (Plasmodium falciparum [2]; Plasmodium falciparum, 3D7): > 1250 nM
EC50 (Plasmodium falciparum [1]; Plasmodium falciparum, W2): > 820 nM
CC50 [3]: > 6250 nM

CC(C)NCC(O)c1ccc2ccccc2c1 (configuration not stated) [PRONETALOL]
EC50 (Plasmodium falciparum [2]; Plasmodium falciparum, 3D7): 455 nM
EC50 (Plasmodium falciparum [1]; Plasmodium falciparum, W2): 366 nM
CC50 [3]: 13100 nM

CCCNCC(O)COc1ccccc1C(=O)CCc1ccccc1 (configuration not stated) [PROPAFENONE]
EC50 (Plasmodium falciparum [2]; Plasmodium falciparum, 3D7): 252 nM
EC50 (Plasmodium falciparum [1]; Plasmodium falciparum, W2): 116 nM
CC50 [3]: 28900 nM

COc1ccc(C[C@H](N)C(=O)N[C@H]2[C@@H](O)[C@H](n3cnc4c(N(C)C)ncnc43)O[C@@H]2CO)cc1 [PUROMYCIN]
EC50 (Plasmodium falciparum [2]; Plasmodium falciparum, 3D7): 611 nM
EC50 (Plasmodium falciparum [1]; Plasmodium falciparum, W2): 328 nM
CC50 [3]: 6630 nM

CCc1nc(N)nc(N)c1-c1ccc(Cl)cc1 [PYRIMETHAMINE]
EC50 (Plasmodium falciparum [2]; Plasmodium falciparum, 3D7): 31.9 nM
EC50 (Plasmodium falciparum [1]; Plasmodium falciparum, W2): 14.6 nM
CC50 [3]: 45600 nM

CCN(CC)CCCC(C)Nc1c2ccc(Cl)cc2nc2ccc(OC)cc12 (configuration not stated) [QUINACRINE]
EC50 (Plasmodium falciparum [2]; Plasmodium falciparum, 3D7): 8.13 nM
EC50 (Plasmodium falciparum [1]; Plasmodium falciparum, W2): 14.2 nM
CC50 [3]: 19600 nM

C=C[C@H]1CN2CC[C@H]1C[C@@H]2[C@@H](O)c1ccnc2ccc(OC)cc12 [QUINIDINE]
EC50 (Plasmodium falciparum [2]; Plasmodium falciparum, 3D7): 9.59 nM
EC50 (Plasmodium falciparum [1]; Plasmodium falciparum, W2): 35.2 nM
CC50 [3]: 50800 nM

C=C[C@H]1CN2CC[C@H]1C[C@H]2[C@H](O)c1ccnc2ccc(OC)cc12 [QUININE]
EC50 (Plasmodium falciparum [2]; Plasmodium falciparum, 3D7): 993 nM
EC50 (Plasmodium falciparum [1]; Plasmodium falciparum, W2): 1320 nM
CC50 [3]: > 6250 nM

CN1CCc2cc3c(c4c2C1Cc1ccccc1-4)OCO3 (configuration not stated) [ROEMERINE]
EC50 (Plasmodium falciparum [2]; Plasmodium falciparum, 3D7): 93.1 nM
EC50 (Plasmodium falciparum [1]; Plasmodium falciparum, W2): 112 nM
CC50 [3]: 22300 nM

O=C(O)[C@@H]1C[C@H](CP(=O)(O)O)CCN1 [SELFOTEL]
EC50 (Plasmodium falciparum [2]; Plasmodium falciparum, 3D7): 1320 nM
EC50 (Plasmodium falciparum [1]; Plasmodium falciparum, W2): > 1210 nM
CC50 [3]: > 5060 nM

CCCCCCCCNC(C)C(O)c1ccc(SC(C)C)cc1 (configuration not stated) [SULOCTIDIL]
EC50 (Plasmodium falciparum [2]; Plasmodium falciparum, 3D7): 82.4 nM
EC50 (Plasmodium falciparum [1]; Plasmodium falciparum, W2): 603 nM
CC50 [3]: 10500 nM

c1ccc(-c2cccc(-c3ccccn3)n2)nc1 [TERPYRIDINE]
EC50 (Plasmodium falciparum [2]; Plasmodium falciparum, 3D7): 154 nM
EC50 (Plasmodium falciparum [1]; Plasmodium falciparum, W2): 39.2 nM
CC50 [3]: 12600 nM

CC(/C=C/C(=O)NO)=C\[C@@H](C)C(=O)c1ccc(N(C)C)cc1 [TRICHOSTATIN]
EC50 (Plasmodium falciparum [2]; Plasmodium falciparum, 3D7): 200 nM
EC50 (Plasmodium falciparum [1]; Plasmodium falciparum, W2): 171 nM
CC50 [3]: 1590 nM

O=C1c2ccccc2-n2c1nc1ccccc1c2=O [TRYPTANTHRIN]
EC50 (Plasmodium falciparum [2]; Plasmodium falciparum, 3D7): 212 nM
EC50 (Plasmodium falciparum [1]; Plasmodium falciparum, W2): 276 nM
CC50 [3]: > 10000 nM

COc1cc2c3c(c4cc(OC)c(OC)cc4c2cc1OC)CN1CCC[C@@H]1C3 [TYLOPHORINE]
EC50 (Plasmodium falciparum [2]; Plasmodium falciparum, 3D7): > 509 nM
EC50 (Plasmodium falciparum [1]; Plasmodium falciparum, W2): 963 nM
CC50 [3]: > 7910 nM

COc1cc2c(Nc3ccc(Br)cc3F)ncnc2cc1OCC1CCN(C)CC1 [VANDETANIB]
EC50 (Plasmodium falciparum [2]; Plasmodium falciparum, 3D7): 1920 nM
EC50 (Plasmodium falciparum [1]; Plasmodium falciparum, W2): 1600 nM
CC50 [3]: 37200 nM
